Tests used:
[1] = biological target: T1, Neuropeptide Y receptor type 2 (Homo sapiens, UniProt P49146); type: cell membranes, Membrane; conditions: kan-ts; also: in other assays of this panel Not Active means under 50% inhibition at 10 µM
T1 sequence (P49146 whole entry): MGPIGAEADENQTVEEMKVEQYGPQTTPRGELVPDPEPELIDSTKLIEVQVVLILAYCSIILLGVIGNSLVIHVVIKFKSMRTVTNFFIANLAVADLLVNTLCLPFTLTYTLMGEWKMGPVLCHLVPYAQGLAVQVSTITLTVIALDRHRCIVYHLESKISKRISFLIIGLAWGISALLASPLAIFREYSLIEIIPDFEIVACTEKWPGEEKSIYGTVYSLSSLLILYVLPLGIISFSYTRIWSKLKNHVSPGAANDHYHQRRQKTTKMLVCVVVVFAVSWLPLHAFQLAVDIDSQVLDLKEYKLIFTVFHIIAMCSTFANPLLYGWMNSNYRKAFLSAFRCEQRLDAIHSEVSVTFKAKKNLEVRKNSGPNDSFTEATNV

[2] = DRUGMATRIX: Glutamate, NMDA, Phencyclidine radioligand binding (ligand: [3H] TCP); type: cell membranes, Rattus norvegicus, Wistar, Cerebral cortex, Membrane; conditions: Not Active = under 50% inhibition at 10 µM
[3] = DRUGMATRIX: ATPase, Na+/K+ enzyme inhibition (substrate: ATP); type: tissue-based, Sus scrofa, Heart; conditions: Not Active = under 50% inhibition at 10 µM
Interstitial collagenase = biological target: T2, Interstitial collagenase (Homo sapiens, UniProt P03956); assay: biochemical; type: tissue-based, Rheumatoid synovial fibroblasts;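 also: MMP-1 enzyme inhibition assay using a peptide substrate; in other assays of this panel Not Active means under 50% inhibition at 10 µM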
T2 sequence (P03956 whole entry): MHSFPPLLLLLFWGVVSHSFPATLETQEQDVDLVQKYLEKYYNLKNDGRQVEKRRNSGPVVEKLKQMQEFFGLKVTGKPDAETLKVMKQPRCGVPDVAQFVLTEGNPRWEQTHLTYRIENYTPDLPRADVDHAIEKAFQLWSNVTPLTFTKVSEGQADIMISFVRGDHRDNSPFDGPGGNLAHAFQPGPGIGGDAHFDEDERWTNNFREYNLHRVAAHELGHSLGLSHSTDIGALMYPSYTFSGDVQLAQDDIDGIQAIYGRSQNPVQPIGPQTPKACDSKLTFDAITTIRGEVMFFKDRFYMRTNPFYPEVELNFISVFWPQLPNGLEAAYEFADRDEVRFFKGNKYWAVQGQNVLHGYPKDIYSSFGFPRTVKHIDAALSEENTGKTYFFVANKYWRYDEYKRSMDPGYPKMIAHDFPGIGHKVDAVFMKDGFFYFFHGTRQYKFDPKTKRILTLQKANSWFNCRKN

[4] = DRUGMATRIX: Sodium/nucleoside co-transporter radioligand binding (ligand: nitrobenzylthioinosine); type: cell membranes, Cavia porcellus, Dunkin-Hartley, Cerebral cortex, Membrane; conditions: Not Active = under 50% inhibition at 10 µM
[5] = DRUGMATRIX: Leukotriene, BLT (LTB4) radioligand binding (ligand: [3H]LTB4); type: cell membranes, Membrane; conditions: u-937; Not Active = under 50% inhibition at 10 µM
Cathepsin G = biological target: T3, Cathepsin G (Homo sapiens, UniProt P08311); type: tissue-based; conditions: neutrophil;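 also: inhibition of Cathepsin G enzyme activity, tested on an AMC-conjugated peptide substrate; in other assays of this panel Not Active means under 50% inhibition at 10 µM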
T3 sequence (P08311 whole entry): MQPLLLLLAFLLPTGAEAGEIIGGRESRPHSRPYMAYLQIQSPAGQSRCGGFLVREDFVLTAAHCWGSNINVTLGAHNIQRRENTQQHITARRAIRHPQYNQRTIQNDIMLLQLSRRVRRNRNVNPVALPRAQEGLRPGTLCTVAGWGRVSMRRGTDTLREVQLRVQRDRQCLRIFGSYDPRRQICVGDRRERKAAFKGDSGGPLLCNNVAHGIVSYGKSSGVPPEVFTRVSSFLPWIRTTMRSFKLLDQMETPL

CNCCc1ccccn1 [BETAHISTINE]
Not Active: IC50 [1] | IC50 [2] | Ki [2] | IC50 [3] | Ki [3] | IC50 (Interstitial collagenase) | IC50 [4] | Ki [4] | IC50 [5] | Ki [5] | IC50 (Cathepsin G)

CC(C)C(Br)C(=O)NC(N)=O (stereo not given) [BROMISOVALUM]
Not Active: IC50 [1] | IC50 [2] | Ki [2] | IC50 [3] | Ki [3] | IC50 (Interstitial collagenase) | IC50 [4] | Ki [4] | IC50 [5] | Ki [5] | IC50 (Cathepsin G)

CCCC1O[C@@H]2C[C@H]3[C@@H]4CCC5=CC(=O)C=C[C@]5(C)[C@H]4[C@@H](O)C[C@]3(C)[C@]2(C(=O)CO)O1 (stereo not given in full) [BUDESONIDE]
Not Active: IC50 [1] | IC50 [2] | Ki [2] | IC50 [3] | Ki [3] | IC50 (Interstitial collagenase) | IC50 [4] | Ki [4] | IC50 [5] | Ki [5] | IC50 (Cathepsin G)

CC(NC(C)(C)C)C(=O)c1cccc(Cl)c1 (stereo not given) [BUPROPION]
Not Active: IC50 [1] | IC50 [2] | Ki [2] | IC50 [3] | Ki [3] | IC50 (Interstitial collagenase) | IC50 [4] | Ki [4] | IC50 [5] | Ki [5] | IC50 (Cathepsin G)

CN(Cc1ccc(C(C)(C)C)cc1)Cc1cccc2ccccc12 [BUTENAFINE]
Not Active: IC50 [1] | IC50 [2] | Ki [2] | IC50 [3] | Ki [3] | IC50 (Interstitial collagenase) | IC50 [4] | Ki [4] | IC50 [5] | Ki [5] | IC50 (Cathepsin G)

C[C@H](CS)C(=O)N1CCC[C@H]1C(=O)O [CAPTOPRIL]
Not Active: IC50 [1] | IC50 [2] | Ki [2] | IC50 [3] | Ki [3] | IC50 (Interstitial collagenase) | IC50 [4] | Ki [4] | IC50 [5] | Ki [5] | IC50 (Cathepsin G)

Cc1ccc(-c2cc(C(F)(F)F)nn2-c2ccc(S(N)(=O)=O)cc2)cc1 [CELECOXIB]
Not Active: IC50 [1] | IC50 [2] | Ki [2] | IC50 [3] | Ki [3] | IC50 (Interstitial collagenase) | IC50 [4] | Ki [4] | IC50 [5] | Ki [5] | IC50 (Cathepsin G)

O=C(O)CCCc1ccc(N(CCCl)CCCl)cc1 [CHLORAMBUCIL]
Not Active: IC50 [1] | IC50 [2] | Ki [2] | IC50 [3] | Ki [3] | IC50 (Interstitial collagenase) | IC50 [4] | Ki [4] | IC50 [5] | Ki [5] | IC50 (Cathepsin G)

CN(C)CCCN1c2ccccc2Sc2ccc(Cl)cc21 [CHLORPROMAZINE]
Not Active: IC50 [1] | IC50 [2] | Ki [2] | IC50 [3] | Ki [3] | IC50 (Interstitial collagenase) | IC50 [4] | Ki [4] | IC50 [5] | Ki [5] | IC50 (Cathepsin G)

C[C@H](CCC(=O)O)[C@H]1CC[C@H]2[C@@H]3[C@H](O)C[C@@H]4C[C@H](O)CC[C@]4(C)[C@H]3C[C@H](O)[C@]12C [CHOLIC ACID]
Not Active: IC50 [1] | IC50 [2] | Ki [2] | IC50 [3] | Ki [3] | IC50 (Interstitial collagenase) | IC50 [4] | Ki [4] | IC50 [5] | Ki [5] | IC50 (Cathepsin G)

Source: ChEMBL document CHEMBL1909046, “DrugMatrix in vitro pharmacology data”
